Reference: patent US12324802B2, “Modulators of cystic fibrosis transmembrane conductance regulator” (Vertex Pharmaceuticals Incorporated, priority 2020, dated 2025)
Where two headings read alike, the source gives them in different places.

Conditions: rcm bond, DCE

CC(C)(C)OC(=O)N(C(=O)OC(C)(C)C)c1cc(C(F)(F)F)c2nc1-c1nnc(o1)[C@@](OCc1ccccc1)(C(F)(F)F)CCC=CCC(c1ccccn1)N2 (mixture of isomers)
ring closure, isolated yield (from C=CCC[C@@](OCc1ccccc1)(c1nnc(-c2nc(NC(CC=C)c3ccccn3)c(C(F)(F)F)cc2N(C(=O)OC(C)(C)C)C(=O)OC(C)(C)C)o1)C(F)(F)F, 14-membered ring, Zhan catalyst-1B, 1.5 mM, 85.0 °C, 12.0 h): 24%

CC(C)(C)OC(=O)Nc1cc(C(F)(F)F)c2nc1-c1nnc(o1)C(OCc1ccccc1)(C(F)(F)F)CCC=CCC1CCCN21 (mixture of isomers)
ring closure, isolated yield (from C=CCCC(OCc1ccccc1)(c1nnc(-c2nc(N3CCCC3CC=C)c(C(F)(F)F)cc2NC(=O)OC(C)(C)C)o1)C(F)(F)F, 14-membered ring, Grubbs II (21 mol%), 15.2 mM, 80.0 °C, 0.75 h): 84%

CC(C)(C)OC(=O)Nc1cc(C(F)(F)F)c2nc1-c1nnc(o1)C(OCc1ccccc1)(C(F)(F)F)CCC=CC[C@@H]1CCCN21 (mixture of isomers)
ring closure, isolated yield (from C=CCCC(OCc1ccccc1)(c1nnc(-c2nc(N3CCC[C@H]3CC=C)c(C(F)(F)F)cc2NC(=O)OC(C)(C)C)o1)C(F)(F)F, 14-membered ring, Zhan-1B (two charges), 7.07 mM, 70.0 °C, 20.0 h): 61%

CC(C)(C)OC(=O)Nc1cc(C(F)(F)F)c2nc1-c1nnc(o1)C(OCc1ccccc1)CCC=CC[C@@H]1CCCN21 (mixture of isomers)
ring closure, isolated yield (from C=CCCC(OCc1ccccc1)c1nnc(-c2nc(N3CCC[C@H]3CC=C)c(C(F)(F)F)cc2NC(=O)OC(C)(C)C)o1, 14-membered ring, Zhan-1B (15 mol%), 6.77 mM, 70.0 °C, 20.0 h): 6%

CC(C)(C)OC(=O)Nc1cc(C(F)(F)F)c2nc1-c1nnc(o1)[C@@](OCc1ccccc1)(C(F)(F)F)CCC=CCC(C(=O)N1CCCC1)N2 (mixture of isomers)
ring closure, isolated yield (from C=CCC[C@@](OCc1ccccc1)(c1nnc(-c2nc(NC(CC=C)C(=O)N3CCCC3)c(C(F)(F)F)cc2NC(=O)OC(C)(C)C)o1)C(F)(F)F, 14-membered ring, Zhan catalyst-1B, 1.4 mM, 75.0 °C, 2.0 h): 66%

CC(C)N1CCC=CCCC(OCc2ccccc2)(C(F)(F)F)C2=NN=C(O2)c2nc1c(C(F)(F)F)cc2[N+](=O)[O-] (mixture of isomers)
ring closure, isolated yield (from C=CCCN(c1nc(-c2nnc(C(CCC=C)(OCc3ccccc3)C(F)(F)F)o2)c([N+](=O)[O-])cc1C(F)(F)F)C(C)C, 14-membered ring, Zhan-1B, 2.53 mM, 75.0 °C, 3.0 h): 84%

CC1(COCc2ccccc2)CC=CCC[C@](OCc2ccccc2)(C(F)(F)F)C2=NN=C(O2)c2nc(c(C(F)(F)F)cc2[N+](=O)[O-])N1 (mixture of isomers)
ring closure, isolated yield (from C=CCC[C@@](OCc1ccccc1)(c1nnc(-c2nc(NC(C)(CC=C)COCc3ccccc3)c(C(F)(F)F)cc2[N+](=O)[O-])o1)C(F)(F)F, 14-membered ring, Zhan catalyst-1B, 2.83 mM, 60.0 °C, 3.17 h): 75%

CC1CC=CCCC(OCc2ccccc2)(C(F)(F)F)C2=NN=C(O2)c2nc(c(C(F)(F)F)cc2[N+](=O)[O-])N1 (mixture of isomers)
ring closure, isolated yield (from C=CCCC(OCc1ccccc1)(c1nnc(-c2nc(NC(C)CC=C)c(C(F)(F)F)cc2[N+](=O)[O-])o1)C(F)(F)F, 14-membered ring, Zhan-1B, 1.85 mM, 75.0 °C, 3.0 h): 61%

CCOC(=O)C1CC=CCCC(OCc2ccccc2)(C(F)(F)F)C2=NN=C(O2)c2nc(c(C(F)(F)F)cc2[N+](=O)[O-])N1 (mixture of isomers)
ring closure, isolated yield (from C=CCCC(OCc1ccccc1)(c1nnc(-c2nc(NC(CC=C)C(=O)OCC)c(C(F)(F)F)cc2[N+](=O)[O-])o1)C(F)(F)F, 14-membered ring, Zhan catalyst-1B, 3.41 mM, 75.0 °C, 2.0 h): 36%

CCOC(=O)CN1CCC=CCCC(OCc2ccccc2)(C(F)(F)F)C2=NN=C(O2)c2nc1c(C(F)(F)F)cc2N(C(=O)OC(C)(C)C)C(=O)OC(C)(C)C (mixture of isomers)
ring closure, isolated yield (from C=CCCN(CC(=O)OCC)c1nc(-c2nnc(C(CCC=C)(OCc3ccccc3)C(F)(F)F)o2)c(N(C(=O)OC(C)(C)C)C(=O)OC(C)(C)C)cc1C(F)(F)F, 14-membered ring, Zhan-1B, 2.3 mM, 75.0 °C, 2.0 h): 92%

CN1CCC=CCCC(OCc2ccccc2)(C(F)(F)F)C2=NN=C(O2)c2nc1c(C(F)(F)F)cc2NC(=O)OC(C)(C)C (mixture of isomers)
ring closure, isolated yield (from C=CCCN(C)c1nc(-c2nnc(C(CCC=C)(OCc3ccccc3)C(F)(F)F)o2)c(NC(=O)OC(C)(C)C)cc1C(F)(F)F, 14-membered ring, Zhan-1B (15 mol%), 6.34 mM, 70.0 °C, 2.0 h): 76%

CN1CCC=CCCC(OCc2ccccc2)(C(F)(F)F)C2=NN=C(O2)c2nc1c(S(C)(=O)=O)cc2NC(=O)OC(C)(C)C (mixture of isomers)
ring closure, isolated yield (from C=CCCN(C)c1nc(-c2nnc(C(CCC=C)(OCc3ccccc3)C(F)(F)F)o2)c(NC(=O)OC(C)(C)C)cc1S(C)(=O)=O, 14-membered ring, Zhan-1B (two charges), 4.01 mM, 70.0 °C, 14.0 h): 41%

COCCN1CCC=CCCC(OCc2ccccc2)(C(F)(F)F)C2=NN=C(O2)c2nc1c(C(F)(F)F)cc2NC(=O)OC(C)(C)C (mixture of isomers)
ring closure, isolated yield (from C=CCCN(CCOC)c1nc(-c2nnc(C(CCC=C)(OCc3ccccc3)C(F)(F)F)o2)c(NC(=O)OC(C)(C)C)cc1C(F)(F)F, 14-membered ring, Zhan-1B (19 mol%), 3.22 mM, 70.0 °C, 3.0 h): 60%

COc1cc2nc(c1[N+](=O)[O-])-c1nnc(o1)C(OCc1ccccc1)(C(F)(F)F)CCC=CC[C@@H]1CCCN21 (mixture of isomers)
ring closure, isolated yield (from C=CCCC(OCc1ccccc1)(c1nnc(-c2nc(N3CCC[C@H]3CC=C)cc(OC)c2[N+](=O)[O-])o1)C(F)(F)F, 14-membered ring, Zhan catalyst-1B, 6.85 mM, 70.0 °C, 5.0 h): 29%

O=C1NNC(=O)[C@@](OCc2ccccc2)(C(F)(F)F)CCC=CCC2(CCCCC2)Nc2nc1c([N+](=O)[O-])cc2C(F)(F)F (mixture of isomers)
ring closure, isolated yield (from C=CCC[C@@](OCc1ccccc1)(C(=O)NNC(=O)c1nc(NC2(CC=C)CCCCC2)c(C(F)(F)F)cc1[N+](=O)[O-])C(F)(F)F, 15-membered ring, Zhan catalyst-1B, 4.99 mM, 60.0 °C, 2.0 h): 70%

O=[N+]([O-])c1cc(C(F)(F)F)c2nc1-c1nnc(o1)C(OCc1ccccc1)(C(F)(F)F)CCC=CCC1CCS(=O)(=O)N21 (mixture of isomers)
ring closure, isolated yield (from C=CCCC(OCc1ccccc1)(c1nnc(-c2nc(N3C(CC=C)CCS3(=O)=O)c(C(F)(F)F)cc2[N+](=O)[O-])o1)C(F)(F)F, 14-membered ring, Zhan-1B, 4.72 mM, 75.0 °C, 6.0 h): 19%

O=[N+]([O-])c1cc(C(F)(F)F)c2nc1-c1nnc(o1)C(OCc1ccccc1)(C(F)(F)F)CCC=CCCN2CCOCc1ccccc1 (mixture of isomers)
ring closure, isolated yield (from C=CCCN(CCOCc1ccccc1)c1nc(-c2nnc(C(CCC=C)(OCc3ccccc3)C(F)(F)F)o2)c([N+](=O)[O-])cc1C(F)(F)F, 14-membered ring, Zhan-1B (25 mol%), 2.75 mM, 75.0 °C, 2.0 h): 59%

O=[N+]([O-])c1cc(C(F)(F)F)c2nc1-c1nnc(o1)C(OCc1ccccc1)(C(F)(F)F)CCC=CCCN2Cc1ccccc1 (mixture of isomers)
ring closure, isolated yield (from C=CCCN(Cc1ccccc1)c1nc(-c2nnc(C(CCC=C)(OCc3ccccc3)C(F)(F)F)o2)c([N+](=O)[O-])cc1C(F)(F)F, 14-membered ring, Zhan-1B, 1.77 mM, 75.0 °C, 3.0 h): 68%

O=[N+]([O-])c1cc(C(F)(F)F)c2nc1-c1nnc(o1)C(OCc1ccccc1)(C(F)(F)F)CCC=CC[C@@H]1COCCN21 (mixture of isomers)
ring closure, isolated yield (from C=CCCC(OCc1ccccc1)(c1nnc(-c2nc(N3CCOC[C@H]3CC=C)c(C(F)(F)F)cc2[N+](=O)[O-])o1)C(F)(F)F, 14-membered ring, Zhan-1B, 15.9 mM, 70.0 °C, 3.5 h): 56%

O=[N+]([O-])c1cc(C(F)(F)F)c2nc1-c1nnc(o1)[C@@](OCc1ccccc1)(C(F)(F)F)CCC=CCC(Cc1ccccc1)N2 (mixture of isomers)
ring closure, isolated yield (from C=CCC[C@@](OCc1ccccc1)(c1nnc(-c2nc(NC(CC=C)Cc3ccccc3)c(C(F)(F)F)cc2[N+](=O)[O-])o1)C(F)(F)F, 14-membered ring, Zhan catalyst-1B, 9.18 mM, 75.0 °C, 2.0 h): 19%

O=[N+]([O-])c1cc(C(F)(F)F)c2nc1-c1nnc(o1)[C@@](OCc1ccccc1)(C(F)(F)F)CCC=CCC(c1ncccn1)N2 (mixture of isomers)
ring closure, isolated yield (from C=CCC[C@@](OCc1ccccc1)(c1nnc(-c2nc(NC(CC=C)c3ncccn3)c(C(F)(F)F)cc2[N+](=O)[O-])o1)C(F)(F)F, 14-membered ring, Zhan catalyst-1B, 2.66 mM, 83.0 °C, 16.0 h): 49%

O=[N+]([O-])c1cc(C(F)(F)F)c2nc1-c1nnc(o1)[C@@](OCc1ccccc1)(C(F)(F)F)CCC=CCC1(CCC1)N2 (mixture of isomers)
ring closure, isolated yield (from C=CCC[C@@](OCc1ccccc1)(c1nnc(-c2nc(NC3(CC=C)CCC3)c(C(F)(F)F)cc2[N+](=O)[O-])o1)C(F)(F)F, 14-membered ring, Zhan catalyst-1B, 3.27 mM, 85.0 °C, 5.0 h): 68%

O=[N+]([O-])c1cc(C(F)(F)F)c2nc1-c1nnc(o1)[C@@](OCc1ccccc1)(C(F)(F)F)CCC=CCC1(CCCC1)N2 (mixture of isomers)
ring closure, isolated yield (from C=CCC[C@@](OCc1ccccc1)(c1nnc(-c2nc(NC3(CC=C)CCCC3)c(C(F)(F)F)cc2[N+](=O)[O-])o1)C(F)(F)F, 14-membered ring, Zhan catalyst-1B, 6.3 mM, 70.0 °C, 2.5 h): 27%

O=[N+]([O-])c1cc(C(F)(F)F)c2nc1-c1nnc(o1)[C@@](OCc1ccccc1)(C(F)(F)F)CCC=CCC1(CCOC1)N2 (mixture of isomers)
ring closure, isolated yield (from C=CCC[C@@](OCc1ccccc1)(c1nnc(-c2nc(NC3(CC=C)CCOC3)c(C(F)(F)F)cc2[N+](=O)[O-])o1)C(F)(F)F, 14-membered ring, Zhan catalyst-1B, 3.17 mM, 60.0 °C, 3.75 h): 82%

O=[N+]([O-])c1cc(C(F)(F)F)c2nc1-c1nnc(o1)[C@@](OCc1ccccc1)(C(F)(F)F)CCC=CCC1(CCOCC1)N2 (mixture of isomers)
ring closure, isolated yield (from C=CCC[C@@](OCc1ccccc1)(c1nnc(-c2nc(NC3(CC=C)CCOCC3)c(C(F)(F)F)cc2[N+](=O)[O-])o1)C(F)(F)F, 14-membered ring, Zhan catalyst-1B, 3.13 mM, 60.0 °C, 3.75 h): 80%

O=[N+]([O-])c1cc(Cl)c2nc1-c1nnc(o1)C(OCc1ccccc1)(C(F)(F)F)CCC=CC[C@@H]1CCCN21 (mixture of isomers)
ring closure, isolated yield (from C=CCCC(OCc1ccccc1)(c1nnc(-c2nc(N3CCC[C@H]3CC=C)c(Br)cc2[N+](=O)[O-])o1)C(F)(F)F, 14-membered ring, Zhan-1B, 5.74 mM, 70.0 °C, 3.0 h): 73%
